Measured values as given in patent US12383545B1, “Treatment of migraine” (priority 2018, dated 2025).

Columns and labels:
Format in all cases: in vivo, human
[1] = system: participants with episodic migraine; assay: Study C: 40-week open-label extension, safety and tolerability of atogepant 60 mg once daily
Description: An open-label extension study for trial completers evaluated the long-term safety and tolerability of oral atogepant 60 mg daily for the prevention of migraine in participants with episodic migraine.
Participants in this trial (Study C) rolled over from the lead in trial (Study A) and were treated with atogepant 60 mg once daily for 40-weeks, with a 4-week safety follow-up period. Only safety data were collected.
Of 695 participants screened, a total of 685 participants took at least one dose of study medication and were included in the safety population. Overall, the mean age was 41.8 years. Female participants accounted for 88.2% of the Safety Population. White and Black or African American patients accounted for 84.4% and 12.6%, respectively. Mean BMI was 30.58 kg/m2.

[2] = system: ALT or AST; assay: Study A: postbaseline hepatic laboratory parameters (ALT or AST, potential Hy's Law); conditions: safety population; for ALT or AST >=1 * ULN, n/N1 (%) / ALT or AST >=1.5 * ULN, n/N1 (%) / ALT or AST >=2 * ULN, n/N1 (%) / ALT or AST >=5 * ULN, n/N1 (%) / ALT or AST >=10 * ULN, n/N1 (%) / ALT or AST >=20 * ULN, n/N1: postbaseline
Description: Adverse events were reported by participants throughout the trial, and at a 4-week follow-up visit. Adverse event information was collected and documented during each clinic visit. Participants could also report adverse events via telephone call between visits. Causality of each adverse event was determined by the investigator who was blinded to the treatment. In addition, clinical laboratory tests, vital signs, electrocardiograms (ECG), and Columbia-Suicide Severity Rating Scale were evaluated. Based on the potential hepatotoxicity of prior gepants, treatment-emergent elevations in ALT or AST ≥3 times the upper limit of normal, as well as potential Hy's law cases, were evaluated as prespecified adverse events of special interest and were reviewed by an independent panel of liver experts blinded to treatment (see, e.g., Negro A et al., CGRP Receptor Antagonists: an expanding drug class for acute migraine? Expert Opin Investig Drugs 2012; 21:807-18; Messina R et al., CGRP—a target for acute therapy in migraine: Clinical Data. Cephalalgia 2019; 39:420-7).
There were no hepatic safety issues identified in this trial. ALT and/or AST increases were low across all atogepant doses and occurred at a lower rate than placebo. […] No cases of liver disease were reported, and no case met the criteria for potential Hy's Law following daily dosing for 12 weeks.

[3] = system: participants with episodic migraine; assay: Study B: HIT-6 total score and responder rates; parameters: key to Change from Baseline in HIT-6 Total Score, LS Mean Δ from baseline: points on HIT-6 total score (range 36–78); negative = improvement; conditions: for HIT-6 total score, LS mean change (95% confidence interval) / proportion of HIT-6 responders (≥5 points from baseline): Study B, 60 mg QD; for Change from Baseline in HIT-6 Total Score, LS Mean Δ from baseline / HIT-6 Total Score Responder Rates, % Responder: atogepant 60 mg; for Change from Baseline in HIT-6 Total Score, LS Mean Δ from baseline: mITT Population; for HIT-6 Total Score Responder Rates, % Responder: responder = ≥5 point improvement from baseline
Description: In embodiments, the present disclosure provides a method for preventing migraine (such as a method for preventing migraine in patients having fewer than fifteen migraine days per month) wherein atogepant is administered in an amount of 10 mg QD, 30 mg QD, or 60 mg QD, wherein administration of atogepant results in a reduction in a 6-item Headache Impact Test (HIT-6) disability score relative to baseline. The Headache Impact Test (HIT-6) is a well-known tool for assessing migraine intensity, and uses six questions to measure the adverse impact of headache on, for example, social functioning, role functioning, vitality, cognitive functioning, and psychological distress. Responses are based on frequency using a 5-point verbal response scale ranging from “never” to “always”. The HIT-6 total score is the sum of the responses, and ranges from 36 to 78. See Yang et al., Validation of the Headache Impact Test (HIT-6™) Across Episodic and Chronic Migraine, Cephalalgia 2011 February; 31 (3): 357-367. In embodiments, treatment with atogepant results in a greater than five (≥5) point decrease in HIT-6 disability score.
The proportion of HIT-6 responders (≥5 points from baseline) were 59.92% and 80.77% of participants in the first (week 4) and last (week 52) timepoints assessed, respectively. A responder on the HIT-6 was defined as a participant with a ≥5 point improvement from baseline.

[4] = Atogepant 60 mg QD, Safety Population N = 685

## C[C@@H]1[C@H](c2c(F)ccc(F)c2F)C[C@H](NC(=O)c2cnc3c(c2)C[C@@]2(C3)C(=O)Nc3ncccc32)C(=O)N1CC(F)(F)F [atogepant]
[1]; 60 mg once daily, 40 weeks
  deaths observed: No deaths
[1]; [4]
  TEAE by Preferred Term: Corona virus infection: 15 (2.2) n (%)
  TEAE by Preferred Term: Influenza: 17 (2.5) n (%)
[1]; atogepant 60 mg once daily, 40 weeks, Safety Population N = 685
  Deaths, participants: (0.0) %
[2]; 10 mg QD
  ALT or AST >=1 * ULN, n/N1 (%): (8.6) %
  ALT or AST >=1.5 * ULN, n/N1 (%): (1.4) %
  ALT or AST >=2 * ULN, n/N1 (%): (0.9) %
  ALT or AST >=5 * ULN, n/N1 (%): (0.5) %
  ALT or AST >=10 * ULN, n/N1 (%): (0.5) %
  ALT or AST >=20 * ULN, n/N1: 0
  Potential Hy's Law (ALT or AST >= 3 * ULN AND Bilirubin Total >= 2 * ULN AND ALP < 2 * ULN), n/N1: 0
[2]; 30 mg QD
  ALT or AST >=1 * ULN, n/N1 (%): (8.0) %
  ALT or AST >=1.5 * ULN, n/N1 (%): (3.1) %
  ALT or AST >=2 * ULN, n/N1 (%): (0.9) %
  ALT or AST >=5 * ULN, n/N1 (%): (0.4) %
  ALT or AST >=10 * ULN, n/N1 (%): 0%
  ALT or AST >=20 * ULN, n/N1: 0
  Potential Hy's Law (ALT or AST >= 3 * ULN AND Bilirubin Total >= 2 * ULN AND ALP < 2 * ULN), n/N1: 0
[2]; 60 mg QD
  ALT or AST >=1 * ULN, n/N1 (%): (12.3) %
  ALT or AST >=1.5 * ULN, n/N1 (%): (3.1) %
  ALT or AST >=2 * ULN, n/N1 (%): (1.8) %
  ALT or AST >=5 * ULN, n/N1 (%): (0.4) %
  ALT or AST >=10 * ULN, n/N1 (%): 0%
  ALT or AST >=20 * ULN, n/N1: 0
  Potential Hy's Law (ALT or AST >= 3 * ULN AND Bilirubin Total >= 2 * ULN AND ALP < 2 * ULN), n/N1: 0
[3]; week 4
  HIT-6 total score, LS mean change (95% confidence interval): −7.63
  proportion of HIT-6 responders (≥5 points from baseline): 59.92%
[3]; week 52
  HIT-6 total score, LS mean change (95% confidence interval): −12.10
  proportion of HIT-6 responders (≥5 points from baseline): 80.77%
[3]; Week 4
  Change from Baseline in HIT-6 Total Score, LS Mean Δ from baseline: −7.63
  HIT-6 Total Score Responder Rates, % Responder: 59.92%
[3]; Week 8
  Change from Baseline in HIT-6 Total Score, LS Mean Δ from baseline: −9.14
  HIT-6 Total Score Responder Rates, % Responder: 66.60%
[3]; Week 12
  Change from Baseline in HIT-6 Total Score, LS Mean Δ from baseline: −6.60
  HIT-6 Total Score Responder Rates, % Responder: 69.21%
[3]; Week 16
  Change from Baseline in HIT-6 Total Score, LS Mean Δ from baseline: −10.15
  HIT-6 Total Score Responder Rates, % Responder: 71.65%
[3]; Week 20
  Change from Baseline in HIT-6 Total Score, LS Mean Δ from baseline: −10.56
  HIT-6 Total Score Responder Rates, % Responder: 73.98%
[3]; Week 24
  Change from Baseline in HIT-6 Total Score, LS Mean Δ from baseline: −10.55
  HIT-6 Total Score Responder Rates, % Responder: 74.00%
[3]; Week 28
  Change from Baseline in HIT-6 Total Score, LS Mean Δ from baseline: −10.99
  HIT-6 Total Score Responder Rates, % Responder: 76.56%
[3]; Week 32
  Change from Baseline in HIT-6 Total Score, LS Mean Δ from baseline: −11.15
  HIT-6 Total Score Responder Rates, % Responder: 77.89%
[3]; Week 36
  Change from Baseline in HIT-6 Total Score, LS Mean Δ from baseline: −11.29
  HIT-6 Total Score Responder Rates, % Responder: 75.62%
[3]; Week 40
  Change from Baseline in HIT-6 Total Score, LS Mean Δ from baseline: −11.76
  HIT-6 Total Score Responder Rates, % Responder: 80.71%
[3]; Week 44
  Change from Baseline in HIT-6 Total Score, LS Mean Δ from baseline: −11.46
  HIT-6 Total Score Responder Rates, % Responder: 78.39%
[3]; Week 48
  Change from Baseline in HIT-6 Total Score, LS Mean Δ from baseline: −11.86
  HIT-6 Total Score Responder Rates, % Responder: 80.11%
[3]; Week 52
  Change from Baseline in HIT-6 Total Score, LS Mean Δ from baseline: −12.10
  HIT-6 Total Score Responder Rates, % Responder: 80.77%
